The nature of series [1]: AUCt in ICR mouse at 10 mg/kg, po measured after 0.083 to 48 hrs by LC-MS/MS analysis. It is filed as ADME, organism-based. Further details: route oral, dose 10 mg/kg, time 0.083-48 hrs. Conditions: in vivo.
The nature of series [2]: AUC(0 to infinity) in ICR mouse at 10 mg/kg, po measured after 0.083 to 48 hrs by LC-MS/MS analysis. In kind it is ADME, organism-based. Further details: route oral, time lower 0.083 hrs, dose 10 mg/kg, time upper 48 hrs. To be noted: in vivo.
The subject of series [3] is Z-138. Briefly: Antiproliferation activity against human Z138 cells assessed as reduction in cell viability incubated for 72 hrs by MTS assay. It is filed as functional, cell-based. To be noted: Z-138, 72 h.
Series [4] concerns the target hERG (KCNH2) (Homo sapiens, UniProt Q12809). Briefly: Inhibition of human ERG expressed in HEK293 cells at 10 uM by patch-clamp technique relative to control. Conditions: HEK293 cells that express hERG. It is filed as cell-based.
Series [5] can be described thus: MRT(0 to infinity) in ICR mouse at 10 mg/kg, po measured after 0.083 to 48 hrs by LC-MS/MS analysis. Conditions: in vivo, time 0.083-48 hrs. It is filed as ADME, organism-based.
Series [6] is described as follows: Half life in ICR mouse at 10 mg/kg, po measured after 0.083 to 48 hrs by LC-MS/MS analysis. It is filed as ADME, organism-based. Conditions: in vivo, time 0.083-48 hrs.
The subject of series [7] is MV4-11. Nature of the series: Antiproliferation activity against human MV4-11 cells assessed as reduction in cell viability incubated for 72 hrs by MTS assay. It is filed as functional, cell-based. Conditions: MV4-11, 72 h.
The nature of series [8]: Cmax in ICR mouse at 10 mg/kg, po measured after 0.083 to 48 hrs by LC-MS/MS analysis. Further details: route oral, time upper 48 hrs, dose 10 mg/kg, time lower 0.083 hrs. Conditions: in vivo. In kind it is ADME, organism-based.
The target in series [9] is T1, Serine/threonine-protein kinase Chk1 (Homo sapiens, UniProt O14757).
T1 sequence (O14757 whole entry): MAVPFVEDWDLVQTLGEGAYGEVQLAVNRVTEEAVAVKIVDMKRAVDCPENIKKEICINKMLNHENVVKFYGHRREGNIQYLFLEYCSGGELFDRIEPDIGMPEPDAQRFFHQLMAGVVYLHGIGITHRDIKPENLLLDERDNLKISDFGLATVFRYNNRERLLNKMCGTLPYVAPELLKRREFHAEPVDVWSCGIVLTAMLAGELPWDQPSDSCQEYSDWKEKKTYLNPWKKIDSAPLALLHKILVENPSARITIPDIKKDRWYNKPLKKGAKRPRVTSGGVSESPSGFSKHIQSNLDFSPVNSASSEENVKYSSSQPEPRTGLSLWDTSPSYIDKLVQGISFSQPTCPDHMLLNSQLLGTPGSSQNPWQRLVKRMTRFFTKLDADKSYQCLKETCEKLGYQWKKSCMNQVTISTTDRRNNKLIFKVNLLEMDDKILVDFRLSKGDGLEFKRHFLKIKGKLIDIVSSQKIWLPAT
Nature of the series: Inhibition of CHK1 (unknown origin) incubated for 1 hr in presence of ATP by HTRF assay.

The nature of series [10]: Tmax in ICR mouse at 10 mg/kg, po measured after 0.083 to 48 hrs by LC-MS/MS analysis. Conditions: in vivo, time 0.083-48 hrs. In kind it is ADME, organism-based.
Series [11] in a line: Tmax in ICR mouse at 20 mg/kg, po measured after 0.083 to 48 hrs by LC-MS/MS analysis. It is filed as ADME, organism-based. To be noted: in vivo, time 0.083-48 hrs.
The test system of series [12] is MV4-11. Nature of the series: Antitumor activity against human MV4-11 cells xenografted in mouse assessed as inhibition of tumor growth by measuring T/C ratio at 30 mg/kg, po dosed 5 days/week for 3 weeks measured twice every week. In kind it is functional.
A short description of series [13]: AUCt in ICR mouse at 20 mg/kg, po measured after 0.083 to 48 hrs by LC-MS/MS analysis. It is filed as ADME, organism-based. Further details: route oral, dose 20 mg/kg, time 0.083-48 hrs. Conditions: in vivo.
A short description of series [14]: MRT (0 to infinity) in ICR mouse at 20 mg/kg, po measured after 0.083 to 48 hrs by LC-MS/MS analysis. It is filed as ADME, organism-based. To be noted: in vivo, time 0.083-48 hrs.
The nature of series [15]: Cmax in ICR mouse at 20 mg/kg, po measured after 0.083 to 48 hrs by LC-MS/MS analysis. Further details: route oral, time upper 48 hrs, time lower 0.083 hrs, dose 20 mg/kg. In kind it is ADME, organism-based. To be noted: in vivo.
A short description of series [16]: Half life in ICR mouse at 20 mg/kg, po measured after 0.083 to 48 hrs by LC-MS/MS analysis. It is filed as ADME, organism-based. To be noted: in vivo, time 0.083-48 hrs.
Series [17] in a line: AUC (0 to infinity) in ICR mouse at 20 mg/kg, po measured after 0.083 to 48 hrs by LC-MS/MS analysis. Further details: route oral, time upper 48 hrs, time lower 0.083 hrs, dose 20 mg/kg. It is filed as ADME, organism-based. To be noted: in vivo.
The target in series [18] is T2, Serine/threonine-protein kinase Chk1 (Homo sapiens) (UniProt O14757).
T2 sequence (whole entry): T1 sequence (O14757 whole entry)
Briefly: Inhibition of CHK1 in human HT-29 cells assessed as […] residue at 40 nM incubated for 24 hrs by Western blot analysis. It is filed as cell-based.

Series [19] relates to HT-29. Nature of the series: Antitumor activity against human HT-29 cells xenografted in mouse assessed as reduction in tumor growth by measuring T/C ratio at 100 mg/kg, iv dosed once a week for 22 days measured twice every week. It is filed as functional. To be noted: time 22 day.
The test system of series [20] is Mus musculus. Briefly: Induction of S296 phosphorylation in tumor of mouse xenografted with human HT-29 cells at 100 mg/kg, iv dosed once a week for 22 days by Western blot analysis. It is filed as functional, organism-based. To be noted: time 22.0 day.
For series [21], the system named is HT-29. Nature of the series: Induction of gamma-H2A.X in human HT-29 cells at 40 nM incubated for 24 hrs by Western blot analysis. It is filed as functional, cell-based.
Series [22] concerns the target T2, Serine/threonine-protein kinase Chk1 (Homo sapiens). Briefly: Inhibition of CHK1 in human HT-29 cells assessed as increase in phosphorylation at S345 residue at 40 nM incubated for 24 hrs by Western blot analysis. It is filed as cell-based.
Series [23] has as its system Mus musculus. Briefly: Induction of S345 phosphorylation in tumor of mouse xenografted with human HT-29 cells at 100 mg/kg, iv dosed once a week for 22 days by Western blot analysis. To be noted: time 22.0 day. It is filed as functional, organism-based.

Activity calls are given as the source filed them. The calls are words filed in the database; no cut-off is given here.

hERG (KCNH2), sequence (Q12809 whole entry): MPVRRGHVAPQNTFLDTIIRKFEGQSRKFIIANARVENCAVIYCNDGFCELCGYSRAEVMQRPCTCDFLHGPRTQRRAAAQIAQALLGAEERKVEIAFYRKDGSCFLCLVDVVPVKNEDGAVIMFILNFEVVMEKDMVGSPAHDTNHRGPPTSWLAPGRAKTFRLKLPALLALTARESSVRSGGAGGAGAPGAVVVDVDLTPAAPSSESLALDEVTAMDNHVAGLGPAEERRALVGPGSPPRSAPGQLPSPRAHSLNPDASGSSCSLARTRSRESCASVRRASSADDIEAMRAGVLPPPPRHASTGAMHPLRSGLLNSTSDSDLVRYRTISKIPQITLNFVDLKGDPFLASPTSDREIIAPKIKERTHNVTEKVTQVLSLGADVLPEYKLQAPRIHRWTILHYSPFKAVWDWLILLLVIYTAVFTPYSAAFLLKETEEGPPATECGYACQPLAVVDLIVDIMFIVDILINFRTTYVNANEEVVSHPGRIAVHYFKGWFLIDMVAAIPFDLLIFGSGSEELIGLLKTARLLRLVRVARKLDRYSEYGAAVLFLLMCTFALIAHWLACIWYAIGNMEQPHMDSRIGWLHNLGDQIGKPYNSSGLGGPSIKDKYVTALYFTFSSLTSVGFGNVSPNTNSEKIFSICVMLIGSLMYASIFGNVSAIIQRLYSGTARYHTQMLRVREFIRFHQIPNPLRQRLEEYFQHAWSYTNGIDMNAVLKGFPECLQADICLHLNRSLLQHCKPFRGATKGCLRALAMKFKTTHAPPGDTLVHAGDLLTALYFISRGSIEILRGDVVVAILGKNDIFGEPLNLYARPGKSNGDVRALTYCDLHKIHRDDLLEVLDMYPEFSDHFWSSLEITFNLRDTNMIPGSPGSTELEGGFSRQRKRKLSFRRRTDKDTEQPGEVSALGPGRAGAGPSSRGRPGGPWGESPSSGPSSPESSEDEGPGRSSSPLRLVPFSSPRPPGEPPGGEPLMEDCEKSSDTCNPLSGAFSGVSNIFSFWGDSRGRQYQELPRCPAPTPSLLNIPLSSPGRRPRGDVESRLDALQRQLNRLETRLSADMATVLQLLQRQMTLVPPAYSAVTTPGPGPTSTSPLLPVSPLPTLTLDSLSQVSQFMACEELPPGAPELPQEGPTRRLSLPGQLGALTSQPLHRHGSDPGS

For the compound `N#Cc1ccc(Nc2ncc(C(F)(F)F)c(N[C@H]3CC[C@H](N)CC3)n2)cn1`, in [1], the AUC(0-t) turned out to be 1430 ng·h/mL. In [2], the total exposure AUC(0-inf) came out at 1440 ng·h/mL. For the same compound, the figures for the IC50 in series [3], in series [7] and in series [9] were 680 nM, 50 nM and 32.9 nM, respectively. Moreover, the inhibition at 10 µM in series [4] stood at 47.9%. In series [5], this compound registered an MRT inf of 3.37 h. The compound further had a half-life in [6] of 2.88 h. In addition, the peak level in [8] (Cmax) was 371 ng/mL. Besides, the time of peak concentration (Tmax) in series [10] came out at 1.42 h.
For the compound `CNc1nc(Nc2cnc(C#N)c(N[C@@H]3CCNC3)c2)ncc1C(F)(F)F`, in [11], the Tmax turned out to be 0.33 h. Also, the IC50 in series [3] worked out at 170 nM; in series [7], 60 nM; in series [9] it was 3.3 nM. For the same compound, in series [12], the T/C stood at 65.78%. Also, in series [4], the inhibition at 10 µM stood at 17.9%. The compound further gave an AUC(0-t) in series [13] of 1120 ng·h/mL. The compound further yielded an MRT inf in series [14] of 1.17 h. Also, the peak level in series [15] (Cmax) was 1330 ng/mL. Moreover, in [16], the half-life was 1.4 h. Besides, the AUC(0-inf) in series [17] amounted to 1150 ng·h/mL.
As for `CS(=O)(=O)CCNCCCNc1nc(Nc2ccc(C#N)nc2)ncc1C(F)(F)F`, the Tmax in [11] worked out at 0.25 h. The IC50 was 630 nM in series [3], 250 nM in [7] and 24.3 nM in [9]. For the same compound, at 10 µM the inhibition in [4] was 58.5%. Moreover, in series [13], the exposure AUC(0-t) was 2520 ng·h/mL. In addition, the mean residence time (MRT inf) in series [14] amounted to 2.42 h. The Cmax in [15] turned out to be 1690 ng/mL. The compound also gave a half-life in series [16] of 2.38 h. Also, the AUC(0-inf) in series [17] is 2710 ng·h/mL.
As to `N#Cc1ccc(Nc2ncc(C(F)(F)F)c(NCCCN)n2)cn1`, the Tmax in series [11] was found to be 0.5 h. Also, the IC50 in series [3] was 460 nM; in series [7], 140 nM; in series [9], 20.9 nM. Further, the T/C in series [12] was found to be 29.94%. Also, the inhibition at 10 µM in series [4] was 43.4%. In [13], this compound registered an AUC(0-t) of 3300 ng·h/mL. Besides, the mean residence time (MRT inf) in [14] is 1.3 h. The compound also returned a Cmax in [15] of 2860 ng/mL. In series [16], the half-life was 0.76 h. Further, the AUC(0-inf) in series [17] worked out at 4100 ng·h/mL.
In the case of `CNc1nc(Nc2cnc(C#N)c(O[C@@H]3CCCNC3)c2)ncc1C(F)(F)F`, the Tmax in series [11] was found to be 1.08 h. For the same compound, the IC50 in [3] is 1390 nM; in series [7], 330 nM; in series [9], 7.6 nM. For the same compound, in series [4], the inhibition at 10 µM came out at 91.6%. In series [13], the AUC(0-t) worked out at 166 ng·h/mL. In [14], the mean residence time MRT inf worked out at 1.57 h. Besides, the highest level in series [15] (Cmax) was 127 ng/mL. Besides, the half-life in series [16] is 0.7 h. The same compound showed an AUC(0-inf) in [17] of 168 ng·h/mL.
Regarding `Nc1ccn([C@@H]2O[C@H](CO)[C@@H](O)C2(F)F)c(=O)n1` [GEMCITABINE], the result in series [18], in [20], in series [21], in [22] and in [23] was Active. For the same compound, in series [19], the T/C was found to be 57.7%.
Turning to `CNCCCNc1nc(Nc2ccc(C#N)nc2)ncc1C(F)(F)F`, the Tmax in series [11] stood at 0.5 h. In addition, the IC50 in series [3] worked out at 300 nM; in series [7], 240 nM; in [9], 12.9 nM. Moreover, in series [12], the T/C is 35.36%. The compound further returned an inhibition at 10 µM in series [4] of 73.3%. The compound further had an AUC(0-t) in series [13] of 6600 ng·h/mL. The same compound displayed an MRT inf in series [14] of 5.62 h. Also, the highest level in series [15] (Cmax) was 1530 ng/mL. Besides, the half-life in [16] was 4.12 h. For the same compound, the AUC(0-inf) in series [17] was 6700 ng·h/mL.

The record behind these values is ChEMBL document CHEMBL4828771, “Discovery and Development of a Potent, Selective, and Orally Bioavailable CHK1 Inhibitor Candidate: 5-((4-((3-Amino-3-methylbutyl)amino)-5-(trifluoromethyl)pyrimidin-2-yl)amino)picolinonitrile” (J Med Chem, 2021).
